{"source": "ChEMBL document CHEMBL5260850", "about": "“The exploration of aza-quinolines as hematopoietic prostaglandin D synthase (H-PGDS) inhibitors with low brain exposure” (Bioorg Med Chem, 2020)", "target": "Tyrosine-protein kinase Lck (Homo sapiens) (UniProt P06239)", "sequence (P06239 2-509 limits assumed)": "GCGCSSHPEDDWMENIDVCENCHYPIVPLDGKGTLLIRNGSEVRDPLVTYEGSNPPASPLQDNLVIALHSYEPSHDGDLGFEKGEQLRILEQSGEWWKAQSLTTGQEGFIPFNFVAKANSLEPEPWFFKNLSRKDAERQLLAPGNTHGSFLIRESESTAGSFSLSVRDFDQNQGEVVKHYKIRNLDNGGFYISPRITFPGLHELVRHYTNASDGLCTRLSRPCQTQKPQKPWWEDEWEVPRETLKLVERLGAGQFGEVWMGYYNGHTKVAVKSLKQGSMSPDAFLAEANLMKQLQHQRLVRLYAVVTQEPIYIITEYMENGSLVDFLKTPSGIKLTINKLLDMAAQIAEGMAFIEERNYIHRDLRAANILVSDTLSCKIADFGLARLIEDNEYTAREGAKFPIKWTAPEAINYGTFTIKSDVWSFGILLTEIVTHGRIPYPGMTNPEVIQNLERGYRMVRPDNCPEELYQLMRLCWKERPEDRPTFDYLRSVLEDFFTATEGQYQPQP", "conditions": "dose <= 10000.0 nM", "note": "Calls of active or inactive are those of the source. The rule behind the calls is not given here."}
{"smiles": "CC(C)(O)[C@H]1CC[C@H](NC(=O)c2cnc3nc(C4CC4)ccc3c2)CC1", "values": [{"measurement": "inhibition", "value": "inactive"}]}
